Test results from article PMC4297708 (Drug and alcohol dependence, 2014).
Entries after “also recorded” stand apart in the source; their conditions may differ. Like-named read-outs stand apart in the source and are kept apart here.

Experiments:
[1] = molecular target: T1, dopamine transporter (DAT) (Rattus norvegicus, UniProt P23977); test: biochemical; conditions: for DA/5-HT Ratio: ratio of release potencies
[2] = molecular target: T1, dopamine transporter (DAT); test: DAT uptake inhibition assay; assay type: biochemical
sigma receptors = conditions: ref Hiranita et al., 2014; cited from earlier work
rats [3] = conditions: ref Hiranita et al., 2014; cited from earlier work
rats [4] = conditions: rats trained to discriminate cocaine from saline; ref Carroll et al., 2004; cited from earlier work
rats [5] = conditions: ref Hiranita et al., cited from earlier work; for effect on cocaine self-administration dose-effect curve: rats, 2014
[6] = test system: vesicular monoamine transporter 2 (VMAT2); conditions: measured with Tyramine, ref Partilla et al., 2006, cited from earlier work; for EC50: read-out: VMAT2 Release EC50
DAT Y335A = conditions: ref Loland et al., 2008; cited from earlier work
[7] = cited from earlier work
mice [8] = conditions: cited from earlier work
DAT = conditions: highest dose studied, 56 mg/kg; ref Hiranita et al., 2014; cited from earlier work
mice [9] = conditions: range of behaviorally active doses, ref Carroll et al., 2004; cited from earlier work
CB1Rs = conditions: increased efficacy of CP 55940 in calcium mobilization; ref Navarro et al., 2009; cited from earlier work
SERT [10] = molecular target: T2, SERT (Rattus norvegicus, UniProt P31652); conditions: read-out: 5-HT Release EC50; rat brain synaptosomes; ref Yu et al., 2000; cited from earlier work
T2 sequence (P31652 whole entry): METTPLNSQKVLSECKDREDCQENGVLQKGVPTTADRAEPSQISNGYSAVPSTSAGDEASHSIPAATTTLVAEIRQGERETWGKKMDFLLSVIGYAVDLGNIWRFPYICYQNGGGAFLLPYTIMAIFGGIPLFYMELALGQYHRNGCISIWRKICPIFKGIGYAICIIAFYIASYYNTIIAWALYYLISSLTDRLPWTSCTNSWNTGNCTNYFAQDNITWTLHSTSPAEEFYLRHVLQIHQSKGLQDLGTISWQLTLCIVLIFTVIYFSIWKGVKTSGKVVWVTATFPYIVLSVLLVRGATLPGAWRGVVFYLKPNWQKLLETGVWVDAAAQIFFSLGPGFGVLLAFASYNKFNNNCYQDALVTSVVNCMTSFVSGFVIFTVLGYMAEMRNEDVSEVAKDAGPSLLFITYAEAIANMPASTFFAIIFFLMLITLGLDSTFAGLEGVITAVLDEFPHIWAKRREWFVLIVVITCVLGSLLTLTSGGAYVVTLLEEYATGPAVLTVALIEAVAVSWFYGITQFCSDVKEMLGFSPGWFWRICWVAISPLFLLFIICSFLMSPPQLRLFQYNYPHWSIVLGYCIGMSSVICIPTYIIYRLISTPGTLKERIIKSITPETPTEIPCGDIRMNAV

[11] = molecular target: T1, dopamine transporter (DAT); conditions: read-out: DAT UI IC50; rat brain synaptosomes; ref Yu et al., 2000; cited from earlier work
[12] = compared to amphetamine; ref Rothman et al., 2005; cited from earlier work
rats [13] = conditions: ref Rothman et al., 2005; cited from earlier work
SERT [14] = molecular target: T2, SERT; test: 5-HT release assay in synaptosomes; assay type: biochemical; conditions: read-out: 5-HT Release EC50; rat brain synaptosomes; mean ± SD, n=3; Table 4
mice [15] = conditions: mice trained to discriminate cocaine (10 mg/kg) from saline; ref Loland et al. 2012; cited from earlier work
[16] = ref Loland et al., 2012; cited from earlier work
human = conditions: humans; ref Dackis et al., 2003; Malcolm et al., 2006; Hart et al., 2008; cited from earlier work
rats [17] = conditions: ref Katz et al., 1999b; cited from earlier work
rats [18] = test: In vivo microdialysis in the n. accumbens; conditions: male rats, 1 or 3 mg/kg i.v.; for extracellular (dialysate) DA in n. accumbens: Fig. 7, Fig. 8
rats [19] = test: Horizontal locomotor activity; assay type: in vivo; conditions: male rats, 1 or 3 mg/kg i.v.; Fig. 7, Fig. 8
[20] = rat brain synaptosomes, % maximal release, Table 3
[21] = read-out: DA Release EC50, rat brain synaptosomes, mean ± SD, n=3, Table 3
[22] = rat brain synaptosomes, Table 4
[23] = read-out: DA Release EC50, rat brain synaptosomes, mean ± SD, n=3, Table 4
[24] = read-out: DAT UI IC50, rat brain synaptosomes, mean ± SD, n=3, Table 3

T1 sequence (P23977 whole entry): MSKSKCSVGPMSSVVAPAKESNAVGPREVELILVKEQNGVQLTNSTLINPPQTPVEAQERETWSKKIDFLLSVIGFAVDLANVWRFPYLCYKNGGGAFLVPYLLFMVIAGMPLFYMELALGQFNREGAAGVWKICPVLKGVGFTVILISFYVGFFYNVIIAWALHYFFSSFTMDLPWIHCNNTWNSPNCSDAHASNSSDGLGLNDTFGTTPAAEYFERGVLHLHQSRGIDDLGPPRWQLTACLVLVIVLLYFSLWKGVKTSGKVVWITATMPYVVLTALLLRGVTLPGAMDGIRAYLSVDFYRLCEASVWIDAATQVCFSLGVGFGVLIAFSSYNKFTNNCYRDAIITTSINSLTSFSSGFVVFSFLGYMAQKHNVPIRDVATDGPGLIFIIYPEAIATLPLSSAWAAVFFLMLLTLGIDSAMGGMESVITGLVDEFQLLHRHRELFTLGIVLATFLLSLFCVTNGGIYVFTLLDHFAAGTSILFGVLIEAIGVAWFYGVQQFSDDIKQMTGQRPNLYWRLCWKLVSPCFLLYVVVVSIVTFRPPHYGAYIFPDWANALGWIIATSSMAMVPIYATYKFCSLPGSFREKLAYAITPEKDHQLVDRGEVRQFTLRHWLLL

For `Cc1cccc(N2CCNCC2)c1C` [PAL-218, 2,3-Dimethylphenylpiperazine], the “DA Release EMAX” value [1, 20] was 66 ± 1% and the EC50 [1, 21] was 1.21 ± 0.118 µM.
In the case of `CCNC(C)Cc1ccccc1` (stereo not drawn) [PAL-99], the “DA Release EMAX” value [1, 20] is reported as 111 ± 13%.
For `CCCNC(C)C(=O)c1ccccc1` (stereo not drawn) [PAL-359], the “DA UI IC50 (nM)” value ([2]; rat brain synaptosomes, mean ± SD, n=3 in triplicate, Table 1) was “inactive”.
In the case of `CNC(C)C(=O)c1ccc(C)cc1` (stereo not drawn) [Mephedrone], the EC50 [1] is reported as 0.0491 ± 0.0031 µM.
`CC(NC(C)(C)C)C(=O)c1cccc(Cl)c1` (stereo not drawn) [Bupropion] gave an IC50 [2] of 0.658 ± 0.178 µM.
For `Cc1ccc(-c2cc([C@@H]3C4CCC(C[C@@H]3c3ccc(Cl)cc3)N4C)on2)cc1` (stereo partly drawn) [RTI-336], the “affinity at sigma receptors” value (sigma receptors) is given as “relatively low affinity at sigma receptors”, the “self-administration of the compound versus vehicle” value (rats [3]) is given as “self-administered at levels greater than vehicle” and the “substitution for cocaine (drug discrimination)” value (from here on “substitution for cocaine”) (rats [4]) is given as “fully substitutes”. The “effect on cocaine self-administration dose-effect curve” value (rats [5]) was “dose-related leftward shifts in the cocaine self-administration dose effect curve”.
For `c1ccc(CN2CCNCC2)cc1` [Benzylpiperazine], the EC50 ([1]; read-out: DAT Release EC50, mean ± SD, n=3, Table 5) is listed as 0.307 ± 0.019 µM, the “VMAT2 Release EC50 (μM)” value [6] is listed as “lack VMAT2 activity” and the EC50 [6] is listed as over 100 µM.
`NCCc1ccccc1` [Phenethylamine] gave an EC50 [1] of 0.0395 ± 0.0018 µM.
For `COC(=O)[C@H]1[C@@H](OC(=O)c2ccccc2)C[C@@H]2CC[C@H]1N2C` [cocaine], the “loss in potency for Y335A compared with wild-type DAT” value (DAT Y335A) is listed as about 100 fold.
In the case of `CNC(C)Cc1ccc2ccccc2c1` (stereo not drawn) [PAL-1046], the “DA Release EMAX” value [1, 20] is reported as 101 ± 3% and the EC50 [1, 21] is reported as 0.01 ± 0.001 µM.
For `CNC(C)Cc1ccc2c(c1)OCO2` (stereo not drawn) [MDMA], the “DA Release EMAX” value [1] was 103 ± 2% and the EC50 ([1]; read-out: DA Release EC50) was 0.108 ± 0.01 µM.
For `CC(C)(N)Cc1ccccc1` [Phentermine], the EC50 [1] is listed as 0.262 ± 0.021 µM, the “VMAT2 Release EC50 (μM)” value [6] is listed as “lack VMAT2 activity” and the EC50 [6] is listed as over 100 µM.
For `C[C@@H]1CN(CCCn2c3ccccc3c3ccccc32)C[C@H](C)N1` [rimcazole], the “effect on cocaine self-administration” value (rats [5]; 2011) is given as “blocked cocaine self-administration”.
In the case of `Fc1ccc(C(O[C@H]2C[C@H]3CC[C@@H](C2)N3CC2CC2)c2ccc(F)cc2)cc1` [JHW013], the locomotor activity ([7]; fast-onset BZT analogs, ref Li et al., 2011) is listed as “stimulant effects that were substantially reduced compared to those of cocaine”.
For `CC1NCCOC1c1ccccc1` (single isomer, unassigned; (+)) [(+)-Phenmetrazine], the EC50 [1] is given as 0.0874 ± 0.0078 µM, the “VMAT2 Release EC50 (μM)” value [6] is given as “completely inactive” and the EC50 [6] is given as over 100 µM.
`CN[C@@H](C)Cc1ccccc1` [Methamphetamine] showed an EC50 [1] of 0.0245 ± 0.0021 µM.
For `Cc1ccc([C@H]2C[C@@H]3CC[C@H]([C@H]2c2cc(-c4ccc(Cl)cc4)no2)N3C)cc1` [RTI-371, 3β-(4-methylphenyl)-2β-[3-(4-chlorophenyl)isoxazol-5-yl]tropane], the “effect on cocaine-induced locomotor stimulation” value (mice [8]; preliminary report, ref Navarro et al., 2009) is listed as “blocked cocaine-induced locomotor stimulation”, the “rate of displacement of [125I]RTI-121” value (DAT) is listed as 0.320 %/min and the locomotor activity (mice [9]) is listed as “failed to stimulate locomotor activity”. For the same compound, the “affinity at sigma receptors” value (sigma receptors) was “relatively low affinity at sigma receptors”, the “modulation of CB1Rs” value (CB1Rs) was “positive-allosteric modulation of CB1Rs” and the “self-administration of the compound versus vehicle” value (rats [3]) was “not self-administered at rates above those obtained with vehicle”. The “substitution for cocaine” value (rats [4]) was “did not substitute” and the “effect on cocaine self-administration dose-effect curve” value (rats [5]) was “dose-related decreases in the maximum self-administration of cocaine”.
For `CCNC(C)C(=O)c1ccccc1` (stereo not drawn) [N-Ethylpropion], the EC50 (SERT [10]) is given as 2.12 ± 0.098 µM and the IC50 [11] is given as 1.01 ± 0.08 µM.
In the case of `CC(N)Cc1ccc2ccccc2c1` (stereo not drawn) [PAL-287], the reinforcing effects [12] is listed as “lacked strong reinforcing effects”, the “DA release in vivo (microdialysis)” value (rats [13]) is listed as “released much less DA than expected” and the locomotor stimulant effect ([7]; compared to amphetamine, ref Rothman et al., 2005) is listed as “weak locomotor stimulant”. For the same compound, the EC50 [6] was 1.25 ± 0.23 µM.
For `Cc1cccc(CC(C)N)c1` (stereo not drawn) [PAL-314], the EC50 (SERT [14]) was 0.218 ± 0.022 µM, the “DA/5-HT Ratio” value [1, 22] was 6.5 and the EC50 [1, 23] was 0.0333 ± 0.0013 µM.
In the case of `NC(=O)C[S+]([O-])C(c1ccccc1)c1ccccc1` (stereo not drawn) [modafinil], the “substitution for cocaine” value (mice [15]) is listed as “fully substituted for cocaine”, the “DA concentrations in the nucleus accumbens shell” value [16] is listed as “increased DA concentrations in the nucleus accumbens shell, though also to a lesser extent than cocaine” and the “effect on cocaine-induced euphoria” value (human) is listed as “blunted cocaine-induced euphoria”. For the same compound, the locomotor activity ([7]; ref Cao et al., 2010) was “stimulated locomotor activity, though to a lesser extent than cocaine”.
In the case of `Cc1ccccc1N1CCNCC1` [PAL-169, 2-Methylphenylpiperazine], the “DA Release EMAX” value [1, 20] is reported as 90 ± 1% and the EC50 [1, 21] is reported as 0.296 ± 0.02 µM.
In the case of `CC(N)Cc1ccc(F)cc1` (stereo not drawn) [PAL-303], the EC50 (SERT [14]) is reported as 0.939 ± 0.076 µM, the “DA/5-HT Ratio” value [1, 22] is reported as 18 and the EC50 [1, 23] is reported as 0.0515 ± 0.0017 µM.
For `CN1[C@@H]2C[C@@H](OC(=O)[C@H](CO)c3ccccc3)C[C@H]1[C@@H]1O[C@@H]12` [scopolamine], the “effect on effects of cocaine in drug discrimination procedures” value (rats [17]) is listed as “potentiation of effects of cocaine”.
For `CN1[C@@H]2CC[C@H]1C[C@@H](OC(=O)C(CO)c1ccccc1)C2` (stereo partly drawn) [atropine], the “effect on effects of cocaine in drug discrimination procedures” value (rats [17]) is given as “potentiation of effects of cocaine”.
For `CCCCN1[C@@H]2CC[C@H]1CC(OC(c1ccc(F)cc1)c1ccc(F)cc1)C2` (stereo partly drawn) [JHW 007], the “effect on cocaine-induced locomotor stimulation” value (mice [8]; CB1R wild-type and knockout mice, co-injection, ref Desai et al., 2014) is given as “significantly blunted the locomotor stimulant effects of cocaine”, the “effect on cocaine-induced locomotor stimulation” value (mice [8]; DA D2R knockout and wild-type mice, ref Desai et al., 2014) is given as “blocked the stimulant effects of cocaine equally in both knockout and wild-type mice” and the “modulation of CB1Rs” value (CB1Rs) is given as “positive-allosteric modulation of CB1Rs”.
Compound `Cc1ccc(N2CCNCC2)cc1` [PAL-233, 4-Methylphenylpiperazine] has an IC50 [2, 24] of 9.52 ± 0.436 µM.
With `CC(N)Cc1cccc(F)c1` (stereo not drawn) [PAL-353] the EC50 (SERT [14]) was 1.94 ± 0.202 µM, the “DA/5-HT Ratio” value [1, 22] was 80 and the EC50 [1, 23] was 0.0242 ± 0.0011 µM.
With `Cc1ccc(CC(C)N)cc1` (stereo not drawn) [PAL-313] the EC50 (SERT [14]) was 0.0534 ± 0.0041 µM, the “extracellular (dialysate) DA in n. accumbens” value (rats [18]) was “lowest level of DA release in vivo” and the “extracellular 5-HT in n. accumbens” value (rats [18]; Fig. 8) was “highest level of 5-HT release”. For the same compound, the “locomotor stimulation (horizontal locomotor activity)” value (rats [19]) was “lowest levels of locomotor stimulation”, the “DA/5-HT Ratio” value [1, 22] was 1.2 and the EC50 [1, 23] was 0.0441 ± 0.0026 µM.
`CCCC(C(=O)c1ccc2c(c1)OCO2)N1CCCC1` (stereo not drawn) [MDPV] showed an IC50 [2, 24] of 0.0041 ± 6e-05 µM.
In the case of `CCN[C@@H](C)Cc1ccc2ccccc2c1` [PAL-1045], the “extracellular (dialysate) DA in n. accumbens” value (rats [18]) is reported as “extracellular DA concentrations increase; also recorded: magnitude of effect on dialysate DA is lower than that of a full efficacy releaser”, the “locomotor stimulation (horizontal locomotor activity)” value (rats [19]) is reported as “smaller when compared to the full efficacy releaser” and the “DA Release EMAX” value [1, 20] is reported as 78 ± 5%. It also gave an EC50 [1, 21] of 0.046 ± 0.011 µM.
